Measured values: patent US9877937B2, “Compounds and methods for treating aberrant adrenocortical cell disorders” (Millendo Therapeutics, Inc., priority 2012, dated 2018)
“Also recorded” adds a separate entry of the source. Where a name gives a salt, the structure may show the parent alone.

Columns and labels:
[1] = test system: adrenal gland; assay: Adrenal gland weights in dogs after 28 days; format: in vivo
Procedure: Left and right adrenal glands from male and female dogs treated with various doses of ATR-101 (0 mg/kg/day, 0.3 mg/kg/day, 3 mg/kg/day, or 30 mg/kg/day) for 28 days were collected at necropsy and weighed. Dose-related changes in adrenal gland weights occurred in both sexes (FIGS. 16A and 17A). Absolute and relative (adrenal-to-body (Adrenal:BW (%)) and adrenal-to-brain (Adrenal:BrW) weight ratios) adrenal weights were decreased 14% to 55% in both sexes at ≧3 mg/kg/day (FIGS. 16A-C and 17A-C). After the 4 week recovery period, adrenal weights remained decreased 6% to 11% in males at 3 mg/kg/day and 10% to 32% in both sexes at 30 mg/kg/day. […] Histologic changes in the adrenal glands persisted after the recovery period.

[2] = test system: ACC-derived xenotransplants (H295R); assay: High dose ATR-101 on H295R xenotransplants in SCID mice (Example 7); format: in vivo; conditions: 1,000 mg/kg/day oral; 3 mice per group
Excerpt: The effects of a high dose of ATR-101 on ACC-derived xenotransplants in SCID mice were also studied. Xenografts were produced as previously described with 3 mice in the ATR-101 treated group and 3 mice in the control group.

[3] = molecular target: complex II of the electron transport chain (Homo sapiens, UniProt O14521+P21912+P31040+Q99643); conditions: isolated mitochondria; cited from earlier work
Sequence of complex II of the electron transport chain (P31040 43-664): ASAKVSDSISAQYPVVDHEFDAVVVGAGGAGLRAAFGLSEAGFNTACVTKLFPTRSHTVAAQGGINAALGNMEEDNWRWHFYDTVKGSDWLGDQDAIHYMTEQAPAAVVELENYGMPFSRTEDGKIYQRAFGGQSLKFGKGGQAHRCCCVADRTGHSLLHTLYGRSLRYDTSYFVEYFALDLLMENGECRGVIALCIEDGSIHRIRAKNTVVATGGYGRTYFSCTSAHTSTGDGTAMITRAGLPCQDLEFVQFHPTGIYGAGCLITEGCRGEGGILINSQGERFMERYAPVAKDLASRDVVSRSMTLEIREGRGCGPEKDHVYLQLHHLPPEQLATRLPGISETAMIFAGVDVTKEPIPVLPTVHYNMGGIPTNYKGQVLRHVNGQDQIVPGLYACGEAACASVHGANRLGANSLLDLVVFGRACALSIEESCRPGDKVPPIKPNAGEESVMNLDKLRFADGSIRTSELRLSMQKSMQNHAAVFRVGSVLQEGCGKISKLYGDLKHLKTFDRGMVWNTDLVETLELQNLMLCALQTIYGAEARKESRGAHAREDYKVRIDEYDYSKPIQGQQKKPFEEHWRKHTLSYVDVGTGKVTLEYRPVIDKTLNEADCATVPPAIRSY
Sequence of complex II of the electron transport chain (P21912 29-280): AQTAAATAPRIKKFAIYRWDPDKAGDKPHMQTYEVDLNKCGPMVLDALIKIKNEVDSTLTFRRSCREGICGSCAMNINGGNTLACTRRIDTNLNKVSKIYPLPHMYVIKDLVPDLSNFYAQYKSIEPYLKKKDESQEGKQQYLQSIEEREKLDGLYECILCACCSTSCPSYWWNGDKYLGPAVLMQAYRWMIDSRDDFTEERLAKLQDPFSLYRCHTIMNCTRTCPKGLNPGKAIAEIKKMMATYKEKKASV
Sequence of complex II of the electron transport chain (Q99643 30-169): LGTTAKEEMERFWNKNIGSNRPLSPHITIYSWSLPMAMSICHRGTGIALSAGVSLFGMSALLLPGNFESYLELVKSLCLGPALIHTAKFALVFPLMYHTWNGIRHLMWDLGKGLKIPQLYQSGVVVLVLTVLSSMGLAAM
Sequence of complex II of the electron transport chain (O14521 57-159): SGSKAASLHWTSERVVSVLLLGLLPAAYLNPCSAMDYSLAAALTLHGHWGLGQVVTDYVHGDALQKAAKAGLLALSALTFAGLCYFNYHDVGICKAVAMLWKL

[4] = test system: ACC-derived cell line H295R xenografts; assay: ACC xenograft establishment in SCID mice injected with H295R cells (Example 6); format: in vivo
Procedure: FIG. 7 depicts the effects of ATR-101 administration on ACC xenograft establishment. Randomized cohorts of 10 mice injected with H295R cells were administered 700 mg/kg/day ATR-101 for 4 days followed by 300 mg/kg/day ATR-101 or vehicle by gavage beginning 14 days after cell injection. The sizes of the xenografts were measured three times each week.
To investigate the potential therapeutic benefit of ATR-101 in the establishment of ACC xenografts in a mouse model of ACC, ACC-derived cell line H295R was injected in SCID mice (6-7 week males). 1×10^8 cells in 0.2 ml DMEM were injected under the skin in the right dorsal flank regions of SCID mice. Two weeks after injection, the mice were randomized in groups of 10. ATR-101 was administered at 700 mg/kg/day for 4 days, followed by 300 mg/kg/day by oral gavage in 10% DMSO, 0.5% CMC, 0.9% NaCl, 0.2% Tween, pH 3. Control mice were administered vehicle. The tumor size was measured using calipers three times a week. Urinary cortisol was measured at various time points after start of ATR-101 or vehicle administration.

[5] = test system: adrenal gland; assay: Adrenal gland histopathology in dogs; format: in vivo; conditions: 300 mg/kg/day for 28 days; day 28; hydrochloride
Procedure: Left and right adrenal glands from dogs treated with a high dose 300 mg/kg/day of ATR-101 for 28 days and control animals were collected at necropsy and fixed in 10% neutral buffered formalin, processed by routine paraffin technique, sectioned longitudinally, and stained with hematoxylin and eosin for routine light microscopy (FIGS. 15A-E).

[6] = test system: H295R cells; assay: Reducing activity of H295R cells (resazurin reduction, PrestoBlue); format: cell-based, human
Procedure: To measure ATP levels and reducing potentials of H295R cells, these cells were cultured in 96-well flat bottom cell culture plates (BD Biosciences) plated at 50,000 cells in 100 μl. The cells were plated in DMEM media without glucose (GIBCO 11966)+10 mM galactose+5 mM sodium-HEPES+2 mM glutamine (addition)+1 mM sodium pyruvate+100 U/ml penicillin/streptomycin+either 0% or 5% fetal calf serum. After overnight (16-20 h) incubation, 20 μl of medium containing 5% fetal calf serum as well as the aliquots of ATR-101 required to produce the final concentrations were added to the cells. To measure ATP levels, 100 μl of the CellTiter-Glo® (Promega Corp., Madison, Wis.) reagent was added to lyse the cells at the indicated times, and luciferin luminescence was measured to determine the amount of ATP in the lysate. To measure reducing activity, PrestoBlue® Cell Viability reagent (Life Technologies Corp.) was added to the cells immediately after ATR-101. The cells were incubated at 37° C. with CO2, and resorufin fluorescence was measured at the times indicated.
Cellular reducing activity was determined by measuring resazurin reduction using the PrestoBlue® Cell Viability Reagent (Invitrogen). […] Low to moderate concentrations of ATR-101 increased reducing activity, but had little effect on ATP levels. High concentrations of ATR-101 reduced both reducing activity and ATP levels, presumably because of a decrease in cell viability.
To determine if the culture of H295R cells in the presence of MβCD altered ATR-101 entry into cells, the effects of MβCD on ATR-101 induced changes in reducing activity were examined (FIG. 12D-F). Culture in the presence of MβCD alone had little effect on the reducing activity of the cells (FIG. 12E). […] The reduction in reducing activity was likely related to the reduction in ATP levels caused by MβCD complexed with cholesterol.

[7] = test system: xenografts of the human ACC-derived cell line H295R; assay: H295R xenografts in SCID mice, treatment of established tumors (Examples 1 and 2); format: in vivo
Procedure: To investigate the potential therapeutic effect of ATR-101 in a mouse model of adrenocortical carcinoma (ACC), xenografts of the human ACC-derived cell line H295R in SCID mice (6-7 week males) were established. After the xenografts had grown to measurable size, the mice were randomized in two groups. The treatment group was administered 300 mg/kg/day ATR-101 by oral gavage. The control group was administered the vehicle without ATR-101. The tumor size was measured using calipers before and on the indicated days after starting administration of ATR-101.
To determine if the effects of ATR-101 on ACC-derived cell line xenotransplants were reproducible, the experiment using xenotransplants of the same H295R cell line in SCID mice (10-11 week males) were repeated.

With CC(C)c1cccc(C(C)C)c1NC(=O)NCC1(c2ccc(N(C)C)cc2)CCCC1 [ATR-101, N-(2,6-bis(1-methylethyl)phenyl)-N′-((1-(4-(dimethylamino)phenyl)cyclopentyl)-methyl)urea hydrochloride] the “histologic changes in adrenal glands after recovery period” value ([1]; after 4 week recovery) was “persisted”, the “histologic changes associated with adrenal weight changes” value ([1]; both sexes, ≧3 mg/kg/day) was “adrenal cortical atrophy, fibrosis, and vacuolation” and the “tumor growth versus vehicle treated controls” value [2] was “significantly reduced tumor growth”. The “effect on complex II of the electron transport chain” value [3] was “inhibit”, the “body weight versus vehicle” value ([4]; 700 then 300 mg/kg/day) was “no significant difference” and the “median time until xenograft formation versus vehicle-treated group” value ([4]; 700 then 300 mg/kg/day) was “more than twice as long”. The survival ([4]; 100 days after injection) was “All the mice were alive”, the “mice that developed palpable xenografts” value ([4]; of 10 mice, 700 mg/kg/day 4 days then 300 mg/kg/day by gavage from 14 days after injection, vehicle 7 of 10) was 2 and the xenograft size ([4]; the 2 xenografts, 100 days after injection) was less than 500 mm^3. For the same compound, the “adrenal gland histopathology findings” value [5] was “fibrosis; also recorded: vacuolation; also recorded: cortical atrophy”, the “reducing activity in cells cultured in presence of MβCD” value ([6]; 2 mM MβCD) was “larger increase in reducing activity” and the “resazurin fluorescence signal, higher concentrations” value ([6]; ATR-101 concentrations higher than 8 μM) was “reduced the fluorescence”. The “reducing activity in cells cultured with MβCD complexed with cholesterol” value ([6]; MβCD complexed with cholesterol, in absence and presence of ATR-101) was “lower reducing activities”, the “resazurin fluorescence signal, low concentrations” value ([6]; up to 8 μM ATR-101) was “increased the fluorescence signal” and the “decrease in tumor size” value ([7]; 300 mg/kg/day oral gavage, 8 days after start, n=3, relative standard deviation 32%, control increased 400%) was 50%. For the same compound, the “time to resumption of tumor growth after change to Formulation II” value ([7]; 300 mg/kg/day, formulation changed after first week) was “within two days”, the “body condition score (BCS)” value ([7]; 300 mg/kg/day, treatment group, control 2.0) was 3.0 and the “tumor size versus control group” value ([7]; 15 days after beginning of administration, p<0.05) was “significantly smaller”. The “time to resumption of tumor growth after start of administration” value ([7]; Example 2) was “within eight days”, the tumor size ([7]; Example 2, 300 mg/kg/day, six days after start, n=2) was “decreased to undetectable size” and the “tumor size as fraction of size of tumors in control mice” value ([7]; Example 2, 13 days after start) was “one-eighth to one-third”. For the same compound, the “regression of xenograft relative to size before administration” value ([7]; all mice with tumors smaller than 300 mm^3) was “less than half of its size”, the “time at which tumors exceeded pre-treatment size” value ([7]; both experiments) was 8 to 15 days and the “time at which tumors resumed growth after start of administration” value ([7]; both experiments) was 7 to 9 days. For the same compound, the “time of maximal therapeutic effect after start of administration” value ([7]; both experiments) was 6 to 8 days, the “post-mortem tumor weight (mean)” value ([7]; first experiment, surviving treated mice, SD of the mean 0.13 g, control 1.23 g, p<0.05) was 0.71 g and the “total body weight (mean)” value ([7]; first experiment, treatment group, SD of the mean 1 g, control 19 g) was 24 g. For the same compound, the “effect on tumor growth in mice with large tumors” value ([7]; two mice with tumors of 300 mm^3 and 900 mm^3) was “did not halt the tumor growth”.
